Here are results for twelve molecules from publication PMC4264242, “Androgen Receptor Antagonists and Anti-Prostate Cancer Activities of Some Newly Synthesized Substituted Fused Pyrazolo-, Triazolo- and Thiazolo-Pyrimidine Derivatives” (International Journal of Molecular Sciences, 2014).

“Also recorded” adds a separate entry of the source.

One assay has as its target T1, human androgen receptor (Homo sapiens, UniProt P10275).
T1 construct: expressed in transfected cells
T1 sequence (P10275 1-920): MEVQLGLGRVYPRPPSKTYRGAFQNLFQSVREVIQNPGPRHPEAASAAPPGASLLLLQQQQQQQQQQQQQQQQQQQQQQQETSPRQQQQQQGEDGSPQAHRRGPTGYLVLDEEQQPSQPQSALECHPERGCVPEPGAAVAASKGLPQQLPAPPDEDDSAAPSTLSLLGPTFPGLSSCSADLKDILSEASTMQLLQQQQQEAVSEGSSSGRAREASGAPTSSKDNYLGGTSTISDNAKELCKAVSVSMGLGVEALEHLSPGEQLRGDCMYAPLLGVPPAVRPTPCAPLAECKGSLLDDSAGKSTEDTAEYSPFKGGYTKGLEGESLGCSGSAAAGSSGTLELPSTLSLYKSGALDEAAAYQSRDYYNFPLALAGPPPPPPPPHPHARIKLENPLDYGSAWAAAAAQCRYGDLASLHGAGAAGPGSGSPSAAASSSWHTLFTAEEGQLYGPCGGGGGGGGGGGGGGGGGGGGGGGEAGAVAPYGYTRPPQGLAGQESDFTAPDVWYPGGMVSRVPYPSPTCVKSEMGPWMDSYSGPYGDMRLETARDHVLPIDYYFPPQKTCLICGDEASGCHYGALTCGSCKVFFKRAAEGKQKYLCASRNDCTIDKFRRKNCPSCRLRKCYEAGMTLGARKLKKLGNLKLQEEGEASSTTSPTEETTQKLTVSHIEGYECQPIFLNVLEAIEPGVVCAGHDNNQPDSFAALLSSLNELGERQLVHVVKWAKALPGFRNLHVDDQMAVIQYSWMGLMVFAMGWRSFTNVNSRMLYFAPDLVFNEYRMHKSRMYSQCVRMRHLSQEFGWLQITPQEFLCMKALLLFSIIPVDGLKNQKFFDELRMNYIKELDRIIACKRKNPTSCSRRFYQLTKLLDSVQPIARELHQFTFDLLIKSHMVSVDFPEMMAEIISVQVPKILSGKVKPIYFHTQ
Description: In vitro androgen receptor antagonistic activity, DHT-induced MMTV-luciferase reporter assay in AR/CHO#3 cells. Type of assay: cell-based. Conditions: 0.3 nM DHT, AR/CHO#3 cells normalised to SV/CHO#10. The protocol: Chinese Hamster Ovary (CHO) Cells Stably Transfected with Human Androgen Receptor Gene and Mouse Mammary Tumor Virus (MMTV)-Luciferase Reporter Gene or SV40-Luciferase Gene: CHO cells were maintained in alpha-modified Eagle’s medium supplemented with 10% fetal bovine serum (FBS). The culture medium of neomycin-resistant clone cells was supplemented with 10% dextran-coated charcoal-stripped FBS (DCC-FBS) and […] of neomycin. The CHO cells were transfected at 40%–70% confluence in 10-cm petri dishes with a total of […] DNA (plasmide mammalian neow luciferase, (pMAMneoLUC)); Mouse mammary tumor virus (MMTV)-luciferase reporter plasmid and pSG5-hAR; human androgen receptor expression plasmid, or Simian vacuolating virus 40 (SV40-LUC); SV40-luciferase reporter plasmid containing neomycin resistant gene) by calcium phosphate mediated transfection. The stable transfected cells were selected in the culture medium supplemented with neomycin. The selected clone was designated as AR/CHO#3 (human AR gene and MMTV luciferase reporter gene integrated CHO cell) or SV/CHO#10 (SV-40-luciferase reporter gene integrated CHO cell), respectively.
The stable transfected AR/CHO#3 or SV/CHO#10 cells were plated onto 96-well luminoplates (Packard, Palo Alto, CA, USA) at a density of 2 × 10^4 cells/well, respectively.
Four to eight hours later, the medium was changed to a medium containing DMSO, 0.3 nM of DHT, or 0.3 nM of DHT, and the tested compound. At the end of incubation, the medium was removed and the cells were lysed with […] of lysis buffer (25 mM Tris–HCl (pH 7.8), 2 mM dithiothreitol, 2 mM 1,2-cyclo-hexanediamine-tetraacetic acid, 10% glycerol and 1% Triton X-100). Luciferase substrate (20 mM Tris–HCl (pH 7.8), 1.07 mM magnesium carbonate basic (MgCO3)4Mg(OH)2·5H2O, 2.67 mM MgSO4·7H2O, 0.1 mM ethylenediaminetetraacetic acid (EDTA), 33.3 mM dithiothreitol, 0.27 mM CoA, 0.47 mM luciferin, 0.53 mM ATP) was added, and luciferase activity was measured with a ML3000 luminometer (Dynatech Laboratories, El Paso, TX, UAS). AR antagonistic activities were calculated by the formula below: AR antagonistic activity (%) = 100 (I − X) / (I − B) (1) I: (luciferase activity of AR/CHO#3)/(luciferase activity of SV/CHO#10) in the presence of 0.3 nM of DHT, B: (luciferase activity of AR/CHO#3)/(luciferase activity of SV/CHO#10) in the presence of DMSO, X: (luciferase activity of AR/CHO#3)/(luciferase activity of SV/CHO#10) in the presence of 0.3 nM of DHT and the tested compound.
The concentration of compounds showing 50% AR antagonistic activity, or IC50 values, was obtained by nonlinear analysis using a statistical analysis system (SAS).
On the technique in general: Reporter assays use an easily measured gene product as a stand-in for the process of interest.
Broadly, the IC50 is the point on the concentration scale where inhibition reaches its midpoint. `N#Cc1cnn(-c2nc3c(ccc4ccccc43)s2)c1/N=C\NN` [Compound 9, 2-[3-Imidoformic hydrazido-4-cyanopyrazol-2-yl]naphthalino[1,2-d]thiazole] returned an IC50 of 75 nM.
Still for that read-out and setting: the same measure for `Nc1ncnc2c1cnn2-c1nc2c(ccc3ccccc32)s1` [Compound 3]: 37 nM; for `CCOC1SCC2NC(=O)c3cnn(-c4nc5c(ccc6ccccc65)s4)c3N21` (stereo not shown) [Compound 13, 2-[3-Ethoxy-5-dihydro-6H-7-oxo-[1,3]thiazolo[3,4-b]pyrimidino[4,5-c]pyrazol-2-yl]naphthalino[1,2-d]thiazole]: 29 nM.
Molecule `N=c1c2cnn(-c3nc4c(ccc5ccccc54)s3)c2ncn1NC(=O)c1ccccc1` [Compound 11] displayed an IC50 of 39 nM.
For the molecule `NNc1nc2c(ccc3ccccc32)s1` [Compound 1, 1-(naphtho[1,2-d]thiazol-2-yl)hydrazine], the “IC50, in vitro androgen receptor antagonistic activity” value is recorded as “Inactive”.
Molecule `Nc1nc(=S)[nH]c2c1cnn2-c1nc2c(ccc3ccccc32)s1` [Compound 5, 2-[6-Amino-3H-4-thiopyrimidino[4,5-c]pyrazol-2-yl]naphthalino[1,2-d]thiazole] displayed an IC50 of 41 nM.
The molecule `CCO/C=N\c1c(C#N)cnn1-c1nc2c(ccc3ccccc32)s1` [Compound 8, 2-[3-Ethylimidoformat-4-cyanopyrazol-2-yl]naphthalino[1,2-d]thiazole] yielded an IC50 of 77 nM.
`CCOC1SCC(=O)N1c1c(C#N)cnn1-c1nc2c(ccc3ccccc32)s1` (stereo not shown) [Compound 12, 2-[3-(2-Ethoxy-4-oxo-5-dihydro-1,3-thiazol-3-yl)-4-cyanopyrazol-2-yl]-naphthalino[1,2-d]thiazole] had an IC50 of 91 nM.
The same measure, in the same setting: to `Nc1n[nH]c2c1cnn2-c1nc2c(ccc3ccccc32)s1` [Compound 4] belongs 34 nM; to `Cc1nc2c3cnn(-c4nc5c(ccc6ccccc65)s4)c3ncn2n1` [Compound 10, 2-[6-Methyl[1,2,4]triazolo[2,3-c]pyrimidino[6,5-c]pyrazol-2-yl]naphthalino[1,2-d]thiazole], 23 nM; to `N#Cc1cnn(-c2nc3c(ccc4ccccc43)s2)c1N` [Compound 2, 2-[3-Amino-4-cyanopyrazol-2-yl]naphthalino[1,2-d]thiazole], 31 nM.
Consider `N=c1sc(=S)[nH]c2c1cnn2-c1nc2c(ccc3ccccc32)s1` [Compound 6, 2-[6-Imino-3H-4-thiothiazino[4,5-c]pyrazol-2-yl]naphthalino[1,2-d]thiazole], for which the IC50 was 44 nM.

The same assay, now with this note: 0.3 nM DHT, AR/CHO#3 cells normalised to SV/CHO#10, listed as compound 1.
For `NNc1nc2c(ccc3ccccc32)s1` [Compound 1, 1-(naphtho[1,2-d]thiazol-2-yl)hydrazine], the “IC50, in vitro androgen receptor antagonistic activity” value is listed as “devoid from any activities; also recorded: devoid of any activity”.
